The values below come from paper PMC9851200, “Multiparameter phenotypic screening for endogenous TFEB and TFE3 translocation identifies novel chemical series modulating lysosome function” (Autophagy, 2022).

Series [1] has as its system endogenous TFE3. The series can be described thus: TFE3 nuclear translocation, immunocytochemistry high-content imaging. The conditions noted are these: for Best-Fit Values Span: TFE3 assay concentration response; for Best-Fit Values Span / EC50: 24 h, SH-SY5Y; for EC50: read-out: Best-Fit Values EC50 (converted); for Summary: activity in TFE3 assays compared with original NK-140, OT activity. The format is cell-based.

For series [2], the target named is T1, TGFBR1 (Homo sapiens, UniProt P36897).
T1 sequence (P36897 34-503): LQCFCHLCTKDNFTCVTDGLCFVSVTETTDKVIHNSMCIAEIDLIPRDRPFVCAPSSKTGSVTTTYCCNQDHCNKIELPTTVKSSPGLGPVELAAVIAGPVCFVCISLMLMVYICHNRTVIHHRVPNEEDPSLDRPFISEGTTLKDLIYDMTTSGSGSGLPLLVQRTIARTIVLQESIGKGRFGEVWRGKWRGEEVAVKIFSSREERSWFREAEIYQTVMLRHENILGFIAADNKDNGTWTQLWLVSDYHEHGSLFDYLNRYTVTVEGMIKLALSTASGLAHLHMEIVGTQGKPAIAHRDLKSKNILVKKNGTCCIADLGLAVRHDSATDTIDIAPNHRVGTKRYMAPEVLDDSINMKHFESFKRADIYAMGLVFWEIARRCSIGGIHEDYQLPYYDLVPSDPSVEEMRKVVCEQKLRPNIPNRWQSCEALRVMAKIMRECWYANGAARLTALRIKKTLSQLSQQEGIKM
The series can be described thus: TGFBR1 binding KD (Table S3). Particulars: read-out: TGFBR1 KD. An excerpt:
(§1) Supplement KAUP_A_2095834_SM5251.zip/Supplementary Tables R7.xlsx, sheet "Table S3 - Analogues"

Series [3] addresses T2, PRKD1 (Homo sapiens, UniProt Q15139).
T2 sequence (Q15139 1-912): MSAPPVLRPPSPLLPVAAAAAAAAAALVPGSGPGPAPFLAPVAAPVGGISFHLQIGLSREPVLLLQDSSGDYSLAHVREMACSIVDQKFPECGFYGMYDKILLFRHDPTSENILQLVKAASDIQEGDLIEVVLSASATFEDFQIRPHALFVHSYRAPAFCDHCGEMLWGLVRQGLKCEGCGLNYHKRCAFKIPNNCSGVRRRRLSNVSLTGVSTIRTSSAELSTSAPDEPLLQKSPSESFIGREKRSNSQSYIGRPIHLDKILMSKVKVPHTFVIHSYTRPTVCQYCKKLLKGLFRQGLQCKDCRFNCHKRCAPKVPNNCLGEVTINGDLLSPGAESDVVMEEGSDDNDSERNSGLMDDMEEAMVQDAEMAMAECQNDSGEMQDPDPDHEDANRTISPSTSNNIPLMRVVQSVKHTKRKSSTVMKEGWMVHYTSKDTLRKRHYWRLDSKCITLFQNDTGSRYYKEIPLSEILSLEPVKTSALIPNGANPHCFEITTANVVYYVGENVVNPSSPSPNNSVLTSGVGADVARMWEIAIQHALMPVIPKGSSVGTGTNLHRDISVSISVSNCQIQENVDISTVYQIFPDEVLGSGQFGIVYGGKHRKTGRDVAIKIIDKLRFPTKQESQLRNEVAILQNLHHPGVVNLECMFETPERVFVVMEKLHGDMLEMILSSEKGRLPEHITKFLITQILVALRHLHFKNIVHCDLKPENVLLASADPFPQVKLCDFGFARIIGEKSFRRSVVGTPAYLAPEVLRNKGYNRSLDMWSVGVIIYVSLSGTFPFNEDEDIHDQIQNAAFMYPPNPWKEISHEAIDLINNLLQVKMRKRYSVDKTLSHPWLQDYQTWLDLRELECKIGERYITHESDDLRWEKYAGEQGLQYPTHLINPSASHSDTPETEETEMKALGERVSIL
As to the kind of experiment: PRKD1 binding KD (Table S3). Particulars: relation sign.
Description: as §1

For series [4], the target named is T3, PRKD2 (Homo sapiens, UniProt Q9BZL6).
T3 sequence (Q9BZL6 1-878): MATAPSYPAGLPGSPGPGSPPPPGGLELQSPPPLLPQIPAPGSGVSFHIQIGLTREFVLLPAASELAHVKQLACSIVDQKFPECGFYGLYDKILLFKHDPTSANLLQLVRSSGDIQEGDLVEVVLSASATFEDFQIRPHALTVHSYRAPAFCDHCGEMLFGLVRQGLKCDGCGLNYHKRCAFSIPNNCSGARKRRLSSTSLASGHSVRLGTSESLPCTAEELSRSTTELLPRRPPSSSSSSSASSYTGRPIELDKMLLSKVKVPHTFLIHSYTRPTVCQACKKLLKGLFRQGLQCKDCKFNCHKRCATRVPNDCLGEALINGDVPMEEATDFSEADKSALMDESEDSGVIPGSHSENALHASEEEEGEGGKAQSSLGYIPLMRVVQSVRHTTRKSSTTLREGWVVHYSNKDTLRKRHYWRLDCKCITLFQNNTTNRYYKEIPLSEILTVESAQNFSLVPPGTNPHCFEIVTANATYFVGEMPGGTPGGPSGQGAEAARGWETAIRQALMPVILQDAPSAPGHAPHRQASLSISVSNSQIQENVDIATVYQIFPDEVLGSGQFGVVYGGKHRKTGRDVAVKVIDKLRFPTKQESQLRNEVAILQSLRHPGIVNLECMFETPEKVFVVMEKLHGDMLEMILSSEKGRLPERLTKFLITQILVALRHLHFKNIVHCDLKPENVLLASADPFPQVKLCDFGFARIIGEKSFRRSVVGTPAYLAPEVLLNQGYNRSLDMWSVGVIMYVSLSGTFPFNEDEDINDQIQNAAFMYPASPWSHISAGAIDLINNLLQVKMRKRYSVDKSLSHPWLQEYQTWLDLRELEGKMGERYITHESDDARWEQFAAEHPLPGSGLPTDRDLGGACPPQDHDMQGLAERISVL
The conditions noted are these: read-out: IC50 PRKD2; cited from earlier work.

Series [5] deals with T2, PRKD1. Particulars: cited from earlier work.
The subject of series [6] is SH-SY5Y cells.
Description: Total cell lysis with 5 µL 5% Triton-X 100 (Sigma-Aldrich, T8787) is used as a positive control for the assay and toxicity is expressed as a percentage of luminescence under DMSO conditions.
Setting [7] is: TFE3 assay, second EC50 of biphasic/bell-shaped fit or OT (off-target) activity, unit inferred.

Read-outs that look alike come from different tables or passages of the source. Where only a bound is given, the exact number is not on record here.

As a reminder, the EC50 is the midpoint of the concentration-response curve. Usually Kd stands for the free concentration of one partner at which half of the binding sites on the other are occupied at equilibrium, for simple one-to-one binding. For `Cc1cccc(-c2nc(Nc3ccc4nn(C)nc4c3)c3ccccc3n2)n1` [NK223], in series [1], the “Best-Fit Values Span” value was 88.41 and the Summary result is recorded as “Only OT activity”. Besides, the EC50 in series [1] (setting [7]) was 1.34 µM. For the same compound, the Kd in series [2] was over 10000 nM.
For `Cc1cccc(-c2nc(Oc3ccc4scnc4c3)c3ccccc3n2)n1` [NK220], in series [1], the “Best-Fit Values Span” value is listed as 0.80 and the Summary entry is listed as “Inactive”. Moreover, in series [2], the Kd is over 10000 nM.
Consider `COc1ccc(Nc2nc(-c3cccc(C)n3)nc3ccccc23)cc1` [NK170], for which the 50% effective concentration (EC50) is 0.85 µM in series [1] (Homo sapiens) and 0.83 µM in series [1] (Homo sapiens, TFE3 assay, µM). Besides, the Summary entry in series [1] is recorded as “Weaker, Strong OT activity”. In addition, in series [3], the Kd was 780 nM.
For `Cc1cccc(-c2nc(Nc3ccc4nc(C)sc4c3)c3ccccc3n2)n1` [NK165], the half-maximal effective concentration (EC50) was 3.8 µM in series [1] (setting [7]) and 0.58 µM in series [1] (TFE3 assay, µM). Besides, the Summary result in series [1] is “Stronger, Some OT activity”. In addition, the dissociation constant Kd in series [2] was over 10000 nM.
In general, IC50 refers to the concentration needed to halve the response being measured. In the case of `CC[C@@H](N)CNc1ccnc(-c2cc(-c3cnn(C)c3)ccc2O)n1.Cl.Cl` [CRT0066101, reference compound], the IC50 in series [4] is 2.5 nM; in series [5], 1 nM. Also, the “Cellular toxicity (AK release and nuclear count, in words)” value in series [6] was “pronounced cellular toxicity”. In series [6], the “Concentrations toxic to cells (reduction in nuclear count and increase in AK signal)” value was “above 1 µM”.
As to `Cc1cccc(-c2nc(Nc3ccc4nnn(C)c4c3)c3ccccc3n2)n1` [NK222], the EC50 in series [1] (setting [7]) was 3.12 µM; in series [1] (TFE3 assay, µM) it was 0.22 µM. In series [1], the Summary entry was “Stronger, Some OT activity”. In addition, the dissociation constant Kd in series [2] is over 10000 nM.
Regarding `Cc1cccc(-c2nc(Nc3ccc4ccsc4c3)c3ccccc3n2)n1` [NK219], the EC50 in series [1] (Homo sapiens) is 2.51 µM. Besides, the EC50 in series [1] (Homo sapiens, TFE3 assay, µM) is 2.5 µM. For the same compound, in series [1], the “Best-Fit Values Span” value stood at 44.67 and the Summary result is “Weaker, Strong OT activity”. For the same compound, in series [3], the affinity, expressed as Kd, was 650 nM.
